Results from the supplement of paper PMC10307832.

compound: CC1=CC(=CC=C1)NC2=NC(=CS2)C3=CC=NC=C3 + CC(=O)Nc1cccc(-n2c(=O)n(C3CC3)c(=O)c3c(Nc4ccc(I)cc4F)n(C)c(=O)c(C)c32)c1 [Trametinib] (partner 0.02 µM); experiment: relative viability (nuclei count vs DMSO), 5 days (fraction); higher = more cells survive; settings: first compound 0.08 µM
In short: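 Dosing by pin tool came one day after lung cancer cell lines were seeded in 1536-well plates, using either one drug or a fixed anchor-drug dose plus five library-drug doses (not always all listed) in √10 steps. After 5 days, nuclei were counted on 4× images. Relative viability is treated-well nuclei count divided by vehicle-well nuclei count, and values are medians of duplicate plates.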

Cell Line	relative viability
NCI-H522	0.79
NCI-H838	0.446
NCI-H1651	0.825
NCI-H1734	0.679
NCI-H2009	0.249
LU99A	0.521
PC-14	0.591
LCLC-103H	0.629
NCI-H596	0.731
NCI-H2228	0.418
EMC-BAC-2	0.798
NCI-H2087	0.178
HCC-366	0.357
NCI-H647	0.408
LK-2	0.817
NCI-H2126	0.509
NCI-H2342	0.686

Cell Line	relative viability
NCI-H1793	0.451
H3255	0.597
COR-L23	0.44
COR-L 105	0.442
LOU-NH91	0.704
ChaGo-K-1	0.903
NCI-H358	0.121
NCI-H3122	0.204
HOP-62	0.371
SW 900	0.518
NCI-H1648	0.353
NCI-H1395	0.939
CAL-12T	0.282
NCI-H1944	0.345
NCI-H2170	0.945
SK-MES-1	0.477

same assay, conditions: first compound 0.253 µM

Cell Line	relative viability
NCI-H522	0.66
NCI-H838	0.458
NCI-H1651	0.795
NCI-H1734	0.712
NCI-H2009	0.271
LU99A	0.575
PC-14	0.747
LCLC-103H	0.593
NCI-H596	0.761
NCI-H2228	0.48
NCI-H2087	0.195
HCC-366	0.273
NCI-H647	0.379
LK-2	0.806
NCI-H2126	0.528
NCI-H2342	0.729

Cell Line	relative viability
NCI-H1793	0.353
H3255	0.602
COR-L23	0.598
COR-L 105	0.465
LOU-NH91	0.734
ChaGo-K-1	0.882
NCI-H358	0.141
NCI-H3122	0.25
HOP-62	0.324
SW 900	0.539
NCI-H1648	0.569
CAL-12T	0.325
NCI-H1944	0.409
NCI-H2170	0.935
SK-MES-1	0.5

same assay, conditions: first compound 0.8 µM

Cell Line	relative viability
NCI-H522	0.832
NCI-H838	0.443
NCI-H1651	0.755
NCI-H1734	0.677
NCI-H2009	0.265
LU99A	0.509
PC-14	0.629
LCLC-103H	0.586
NCI-H596	0.575
NCI-H2228	0.501
EMC-BAC-2	1.01
NCI-H2087	0.246
HCC-366	0.183
NCI-H647	0.387
LK-2	0.951
NCI-H2126	0.426
NCI-H2342	0.695

Cell Line	relative viability
NCI-H1793	0.348
H3255	0.569
COR-L23	0.59
COR-L 105	0.454
LOU-NH91	0.721
ChaGo-K-1	0.858
NCI-H358	0.133
NCI-H3122	0.307
HOP-62	0.345
SW 900	0.913
NCI-H1648	0.444
NCI-H1395	0.964
CAL-12T	0.342
NCI-H1944	0.39
NCI-H2170	0.833
SK-MES-1	0.457

same assay, conditions: first compound 2.53 µM

Cell Line	relative viability
NCI-H522	0.789
NCI-H838	0.372
NCI-H1651	0.82
NCI-H1734	0.681
NCI-H2009	0.267
LU99A	0.525
PC-14	0.647
LCLC-103H	0.579
NCI-H596	0.642
NCI-H2228	0.44
EMC-BAC-2	0.879
NCI-H2087	0.164
HCC-366	0.214
NCI-H647	0.424
LK-2	0.772
NCI-H2126	0.476
NCI-H2342	0.74

Cell Line	relative viability
NCI-H1793	0.345
H3255	0.585
COR-L23	0.568
COR-L 105	0.424
LOU-NH91	0.754
ChaGo-K-1	0.929
NCI-H358	0.142
NCI-H3122	0.321
HOP-62	0.328
SW 900	0.508
NCI-H1648	0.471
NCI-H1395	0.724
CAL-12T	0.236
NCI-H1944	0.362
NCI-H2170	0.86
SK-MES-1	0.571

same assay, conditions: first compound 8 µM

Cell Line	relative viability
NCI-H522	0.878
NCI-H838	0.407
NCI-H1651	0.794
NCI-H1734	0.614
NCI-H2009	0.278
LU99A	0.477
PC-14	0.36
LCLC-103H	0.658
NCI-H596	0.586
NCI-H2228	0.385
EMC-BAC-2	0.823
NCI-H2087	0.181
HCC-366	0.168
NCI-H647	0.279
LK-2	1.33
NCI-H2126	0.485
NCI-H2342	0.732
NCI-H1793	0.394
H3255	0.403
COR-L23	0.567
COR-L 105	0.38
LOU-NH91	0.728
ChaGo-K-1	0.839
NCI-H358	0.136
NCI-H3122	0.414
HOP-62	0.266
SW 900	0.667
NCI-H1648	0.588
NCI-H1395	0.898
